{"source": "patent US11234982B2", "about": "“Methods for treating ocular surface pain” (NOVARTIS AG, priority 2019, dated 2022)", "system": "healthy volunteers", "assay": "First in human study Part 2: MAD, incidence of adverse events and MTD", "format": "in vivo", "conditions": "for AEs leading to discontinuation of: nE / AEs leading to discontinuation of: nS (%) / AEs of Mild severity: nE / AEs of Mild severity: nS (%) / AEs of Moderate: nE / AEs of Moderate: nS (%) / AEs, Subjects with AEs: nE (AE events) / AEs, Subjects with AEs: nS (%) (subjects with at least one AE) / Serious AEs: nE / Serious AEs: nS (%) / Study drug-related AEs: nE / Study drug-related AEs: nS (%) / Study-drug related AEs (last line of Table 2): nE / Study-drug related AEs (last line of Table 2): nS (%): MAD, N = 6", "method": "Part 2 tested multiple ascending doses (MAD) of compound I, administering (i) 1 drop of 0.15%, 1.5%, 2.5%, 4 times daily (every 6 hours) for 7 days or (ii) 1 drop of 2.5%, 8 times daily (every 3 hours) for 7 days (supra-therapeutic dose) as eye drops.\nSafety assessments: Safety assessments consisted of collecting all adverse events (AEs), serious adverse events (SAEs), including systemic and ocular adverse events, along with their severity and relationship to study drug. Systemic safety assessments included regular monitoring of hematology, blood chemistry and urinalysis performed at study center and regular assessments of physical examination, vital signs (systolic and diastolic blood pressure, pulse rate, and body temperature), ECG, pregnancy and assessments of fertility and hand immersion test at 49° C. during MAD part. Ocular safety assessments included early treatment diabetic retinopathy study (ETDRS) visual acuity, intraocular pressure, slit-lamp biomicroscopy, corneal staining and dilated fundus exam.\nInclusion Criteria: • Written informed consent was obtained before any assessment was performed. • Healthy male and female subjects aged 18 to 50 years (inclusive), and in good health as determined by past medical history, physical examination, vital signs, ECG, and laboratory tests at Screening. • At Screening, and Baseline, vital signs (systolic and diastolic blood pressure (BP) and pulse rate) were assessed in the sitting position after the subject had rested for at least 3 minutes and again after 3 minutes in the standing position. […] BMI=Body weight (kg)/[Height (m)]^2 • Subjects who were able to communicate well with the Investigator, to understand and comply with the requirements of the study. • For Part 3, subjects Baseline levels of eye sensitivity were to be in the range of 50 to 60 mm (inclusive) as measured by the Cochet-Bonnet esthesiometer.\nHistory of any chronic eye disease other than refractive error, incipient cataract, strabismic amblyopia, or anisometropic amblyopia. Subjects with a history of acute eye disease (such as infection, corneal abrasion or allergy) within the past 6 months from Screening were eligible if the disease was not active. • Any currently active ocular condition that required use of topical eye drops. • Subjects using continuous positive airway pressure or other sleep apnea devices."}
{"smiles": "CC(C)c1nc2cc(O)ccc2c(=O)n1-c1ccc(C#N)cc1", "note": "[Compound I, 4-(7-hydroxy-2-isopropyl-4-oxo-4H-quinazolin-3-yl)-benzonitrile]", "values": [{"measurement": "Dose limiting adverse events", "setting": "2.5%, 8 times daily for 7 days", "result": "No dose limiting adverse events were identified"}, {"measurement": "AEs leading to discontinuation of: nE", "setting": "0.15% 4 times daily for 7 days", "result": 0}, {"measurement": "AEs leading to discontinuation of: nS (%)", "setting": "0.15% 4 times daily for 7 days", "result": "0 (0.0) nS (%)"}, {"measurement": "AEs of Mild severity: nE", "setting": "0.15% 4 times daily for 7 days", "result": 6}, {"measurement": "AEs of Mild severity: nS (%)", "setting": "0.15% 4 times daily for 7 days", "result": "3 (50.0) nS (%)"}, {"measurement": "AEs of Moderate: nE", "setting": "0.15% 4 times daily for 7 days", "result": 0}, {"measurement": "AEs of Moderate: nS (%)", "setting": "0.15% 4 times daily for 7 days", "result": "0 (0.0) nS (%)"}, {"measurement": "AEs, Subjects with AEs: nE (AE events)", "setting": "0.15% 4 times daily for 7 days", "result": 6}, {"measurement": "AEs, Subjects with AEs: nS (%) (subjects with at least one AE)", "setting": "0.15% 4 times daily for 7 days", "result": "3 (50.0) nS (%)"}, {"measurement": "Serious AEs: nE", "setting": "0.15% 4 times daily for 7 days", "result": "0, 0"}, {"measurement": "Serious AEs: nS (%)", "setting": "0.15% 4 times daily for 7 days", "result": "0, 0 nS (%)"}, {"measurement": "Study drug-related AEs: nE", "setting": "0.15% 4 times daily for 7 days", "result": 5}, {"measurement": "Study drug-related AEs: nS (%)", "setting": "0.15% 4 times daily for 7 days", "result": "2 (33.3) nS (%)"}, {"measurement": "Study-drug related AEs (last line of Table 2): nE", "setting": "0.15% 4 times daily for 7 days", "result": 0}, {"measurement": "Study-drug related AEs (last line of Table 2): nS (%)", "setting": "0.15% 4 times daily for 7 days", "result": "0 (0.0) nS (%)"}, {"measurement": "AEs leading to discontinuation of: nE", "setting": "1.5% 4 times daily for 7 days", "result": 0}, {"measurement": "AEs leading to discontinuation of: nS (%)", "setting": "1.5% 4 times daily for 7 days", "result": "0 (0.0) nS (%)"}, {"measurement": "AEs of Mild severity: nE", "setting": "1.5% 4 times daily for 7 days", "result": 11}, {"measurement": "AEs of Mild severity: nS (%)", "setting": "1.5% 4 times daily for 7 days", "result": "5 (83.3) nS (%)"}, {"measurement": "AEs of Moderate: nE", "setting": "1.5% 4 times daily for 7 days", "result": 1}, {"measurement": "AEs of Moderate: nS (%)", "setting": "1.5% 4 times daily for 7 days", "result": "1 (16.7) nS (%)"}, {"measurement": "AEs, Subjects with AEs: nE (AE events)", "setting": "1.5% 4 times daily for 7 days", "result": 12}, {"measurement": "AEs, Subjects with AEs: nS (%) (subjects with at least one AE)", "setting": "1.5% 4 times daily for 7 days", "result": "5 (83.3) nS (%)"}, {"measurement": "Serious AEs: nE", "setting": "1.5% 4 times daily for 7 days", "result": 0}, {"measurement": "Serious AEs: nS (%)", "setting": "1.5% 4 times daily for 7 days", "result": "0 (0.0) nS (%)"}, {"measurement": "Study drug-related AEs: nE", "setting": "1.5% 4 times daily for 7 days", "result": 9}, {"measurement": "Study drug-related AEs: nS (%)", "setting": "1.5% 4 times daily for 7 days", "result": "3 (50.0) nS (%)"}, {"measurement": "Study-drug related AEs (last line of Table 2): nE", "setting": "1.5% 4 times daily for 7 days", "result": 0}, {"measurement": "Study-drug related AEs (last line of Table 2): nS (%)", "setting": "1.5% 4 times daily for 7 days", "result": "0 (0.0) nS (%)"}, {"measurement": "AEs leading to discontinuation of: nE", "setting": "2.5% 4 times daily for 7 days", "result": "1, 1"}, {"measurement": "AEs leading to discontinuation of: nS (%)", "setting": "2.5% 4 times daily for 7 days", "result": "1, 1 nS (%)"}, {"measurement": "AEs of Mild severity: nE", "setting": "2.5% 4 times daily for 7 days", "result": 3}, {"measurement": "AEs of Mild severity: nS (%)", "setting": "2.5% 4 times daily for 7 days", "result": "2 (33.3) nS (%)"}, {"measurement": "AEs of Moderate: nE", "setting": "2.5% 4 times daily for 7 days", "result": 1}, {"measurement": "AEs of Moderate: nS (%)", "setting": "2.5% 4 times daily for 7 days", "result": "1 (16.7) nS (%)"}, {"measurement": "AEs, Subjects with AEs: nE (AE events)", "setting": "2.5% 4 times daily for 7 days", "result": 4}, {"measurement": "AEs, Subjects with AEs: nS (%) (subjects with at least one AE)", "setting": "2.5% 4 times daily for 7 days", "result": "2 (33.3) nS (%)"}, {"measurement": "Serious AEs: nE", "setting": "2.5% 4 times daily for 7 days", "result": 0}, {"measurement": "Serious AEs: nS (%)", "setting": "2.5% 4 times daily for 7 days", "result": "0 (0.0) nS (%)"}, {"measurement": "Study drug-related AEs: nE", "setting": "2.5% 4 times daily for 7 days", "result": 4}, {"measurement": "Study drug-related AEs: nS (%)", "setting": "2.5% 4 times daily for 7 days", "result": "2 (33.3) nS (%)"}, {"measurement": "Study-drug related AEs (last line of Table 2): nE", "setting": "2.5% 4 times daily for 7 days", "result": 1}, {"measurement": "Study-drug related AEs (last line of Table 2): nS (%)", "setting": "2.5% 4 times daily for 7 days", "result": "1 (16.7) nS (%)"}, {"measurement": "AEs leading to discontinuation of: nE", "setting": "2.5% 8 times daily for 7 days", "result": 0}, {"measurement": "AEs leading to discontinuation of: nS (%)", "setting": "2.5% 8 times daily for 7 days", "result": "0 (0.0) nS (%)"}, {"measurement": "AEs of Mild severity: nE", "setting": "2.5% 8 times daily for 7 days", "result": 3}, {"measurement": "AEs of Mild severity: nS (%)", "setting": "2.5% 8 times daily for 7 days", "result": "2 (33.3) nS (%)"}, {"measurement": "AEs of Moderate: nE", "setting": "2.5% 8 times daily for 7 days", "result": 0}, {"measurement": "AEs of Moderate: nS (%)", "setting": "2.5% 8 times daily for 7 days", "result": "0 (0.0) nS (%)"}, {"measurement": "AEs, Subjects with AEs: nE (AE events)", "setting": "2.5% 8 times daily for 7 days", "result": 3}, {"measurement": "AEs, Subjects with AEs: nS (%) (subjects with at least one AE)", "setting": "2.5% 8 times daily for 7 days", "result": "2 (33.3) nS (%)"}, {"measurement": "Serious AEs: nE", "setting": "2.5% 8 times daily for 7 days", "result": 0}, {"measurement": "Serious AEs: nS (%)", "setting": "2.5% 8 times daily for 7 days", "result": "0 (0.0) nS (%)"}, {"measurement": "Study drug-related AEs: nE", "setting": "2.5% 8 times daily for 7 days", "result": 2}, {"measurement": "Study drug-related AEs: nS (%)", "setting": "2.5% 8 times daily for 7 days", "result": "1 (16.7) nS (%)"}, {"measurement": "Study-drug related AEs (last line of Table 2): nE", "setting": "2.5% 8 times daily for 7 days", "result": 0}, {"measurement": "Study-drug related AEs (last line of Table 2): nS (%)", "setting": "2.5% 8 times daily for 7 days", "result": "0 (0.0) nS (%)"}, {"measurement": "Severity of adverse events of suspected causality to compound I", "setting": "Parts 1, 2 and 3, exception in the 2.5% 4 times daily cohort", "result": "mild severity, except for moderate severity eye irritation"}, {"measurement": "Most frequent ocular adverse events", "setting": "compound I treated, compared with placebo", "result": "corneal staining, hyperemia and mild anterior chamber inflammation, in levels similar to placebo"}, {"measurement": "Maximum Tolerated Dose (MTD)", "setting": "maximum feasible concentration, 8 times daily for 7 days, eye drops", "result": 2.5, "unit": "%"}]}
